In the NIST ThermoML archive (doi:10.1016/j.jct.2009.11.018):

Assay: xn = mol fraction of the nth substance listed
Conditions: 298.15 K, 101 kPa, Liquid, Pycnometric method

CCC(O)CO (centres undefined) [1,2-butanediol] + O
Conditions	mass density [kg/m3]
x1 = 0.0625	1009.5
x1 = 0.1347	1015.8
x1 = 0.2153	1016.4
x1 = 0.3019	1014.2
x1 = 0.3915	1011.6
x1 = 0.4804	1009.2
x1 = 0.5651	1006.9
x1 = 0.6428	1005.2
x1 = 0.7115	1003.6
x1 = 0.7703	1002.4
x1 = 0.8195	1001.4
x1 = 0.8595	1000.7
x1 = 0.8916	1000.2
x1 = 0.9244	999.9

CC(O)CO (centres undefined) [1,2-propanediol] + O
Conditions	mass density [kg/m3]
x1 = 0.0731	1016.4
x1 = 0.1555	1031.1
x1 = 0.2449	1037.7
x1 = 0.3384	1039.6
x1 = 0.4321	1039.8
x1 = 0.5223	1039
x1 = 0.6058	1038
x1 = 0.6803	1036.8
x1 = 0.7446	1035.9
x1 = 0.7987	1035
x1 = 0.843	1034.5
x1 = 0.8786	1033.8
x1 = 0.9068	1033.4
x1 = 0.9355	1033.1

CC(O)CCO (centres undefined) [1,3-butanediol] + O
Conditions	mass density [kg/m3]
x1 = 0.0625	1008.2
x1 = 0.1347	1015.9
x1 = 0.2153	1019.2
x1 = 0.3019	1018.8
x1 = 0.3915	1016.8
x1 = 0.4804	1014.4
x1 = 0.5651	1012.2
x1 = 0.6428	1009.9
x1 = 0.7115	1007.9
x1 = 0.7703	1006.2
x1 = 0.8195	1004.8
x1 = 0.8595	1003.8
x1 = 0.8916	1003
x1 = 0.9244	1002.2

OCCCCO [1,4-butanediol] + O
Conditions	mass density [kg/m3]
x1 = 0.0625	1006.6
x1 = 0.1347	1015
x1 = 0.2153	1019.9
x1 = 0.3019	1021.6
x1 = 0.3915	1021.7
x1 = 0.4804	1021
x1 = 0.5651	1020
x1 = 0.6428	1018.8
x1 = 0.7115	1017.5
x1 = 0.7703	1016.6
x1 = 0.8195	1015.7
x1 = 0.8595	1015.1
x1 = 0.8916	1014.7
x1 = 0.9244	1014.1

CC(O)C(C)O (centres undefined) [2,3-butanediol] + O
Conditions	mass density [kg/m3]
x1 = 0.0618	1014.1
x1 = 0.1379	1021.5
x1 = 0.1796	1023.1
x1 = 0.2179	1023.2
x1 = 0.2417	1022.7
x1 = 0.2696	1022
x1 = 0.3027	1021
x1 = 0.3426	1019.5
x1 = 0.3913	1017.6
x1 = 0.4524	1015.2
x1 = 0.5308	1012.2
x1 = 0.6352	1008.4
x1 = 0.7805	1004.1
x1 = 0.9001	1000.9

OCCCO [propan-1,3-diol] + O
Conditions	mass density [kg/m3]
x1 = 0.0731	1015.1
x1 = 0.1555	1028.5
x1 = 0.2449	1038.2
x1 = 0.3384	1044.4
x1 = 0.4321	1047.9
x1 = 0.5223	1049.6
x1 = 0.6058	1050.3
x1 = 0.6803	1050.4
x1 = 0.7446	1050.5
x1 = 0.7987	1050.5
x1 = 0.843	1050.4
x1 = 0.8786	1050.4
x1 = 0.9068	1050.2
x1 = 0.9355	1049.9
